Measurements from US4324728A, “Compound nanaomycin A and derivatives thereof and a process for producing the same” (The Kitasato Institute, priority 1976, dated 1982).
In brackets after ≈: the same amount, converted by molar mass. Read-outs that look alike come from different tables or passages of the source.

Assays:
[1] = system: Aspergillus niger ATCC 6275; assay: Minimal inhibitory concentration (agar); assay type: cell-based; conditions: ATCC6275, 96 h, potato agar, pH 6.4, 4 days, 27° C., read-out: MIC
Trichophyton asteroides = assay: Minimal inhibitory concentration (agar); assay type: cell-based; conditions: potato agar, pH 6.4, 4 days, 27° C.
[2] = system: Escherichia coli NIHJ (JC-2); assay: Minimal inhibitory concentration (agar); assay type: cell-based; conditions: 48 h, pH 7, nutrient agar, pH 7.0, 2 days, 37° C.
Procedure: (§1) Medium N nutrient agar (pH 7.0, 2 days, 37° C.)
(§2) MIC Minimal inhibitory concentration
(§3) N nutrient agar (pH 7.0, 2 days, 37° C.)

[3] = system: Staphylococcus aureus FDA 209P (JC-1); assay: Minimal inhibitory concentration (agar); assay type: cell-based; conditions: FDA209P, 48 h, nutrient agar, pH 7.0, 2 days, 37° C.
Procedure: as §1, §2, §3

Sarcina lutea PCI 1001 = assay: Minimal inhibitory concentration (agar); assay type: cell-based; conditions: Micrococcus luteus, PCI1001, 48 h, pH 7, nutrient agar, pH 7.0, 2 days, 37° C.; read-out: MIC
Procedure: as §1, §2, §3

[4] = system: Bacillus subtilis PCI 219; assay: Minimal inhibitory concentration (agar); assay type: cell-based; conditions: Bacillus subtilis, PCI219, 48 h, pH 7, nutrient agar, pH 7.0, 2 days, 37° C.; read-out: MIC
Procedure: as §1, §2, §3

[5] = system: Mycobacterium smegmatis ATCC 607; assay: Minimal inhibitory concentration (agar); assay type: cell-based; conditions: Mycolicibacterium smegmatis, ATCC607, 48 h; nutrient agar, pH 7.0, 2 days, 37° C.
Salmonella typhimurium = assay: Minimal inhibitory concentration (agar); assay type: cell-based; conditions: Salmonella enterica, 48 h, nutrient agar, pH 7.0, 2 days, 37° C.
[6] = system: Staphylococcus aureus FDA 209P; assay: Minimal inhibitory concentration (agar); assay type: cell-based; conditions: FDA209P, 48 h, nutrient agar, pH 7.0, 2 days, 37° C.
Candida albicans = assay: Minimal inhibitory concentration (agar); assay type: cell-based; conditions: pH 6.4, 4 days, 27° C.
Procedure: (§4) P potato agar (pH 6.4, 4 days, 27° C.)
as §2
(§5) Minimal inhibitory concentration was assayed by agar dilution method
(§6) (potato agar, pH 6.4, 27° C., 4 days).

Trichophyton rubrum = assay: Minimal inhibitory concentration (agar); assay type: cell-based; conditions: pH 6.4, 4 days, 27° C.
Procedure: as §4, §2, §5, §6

Trichophyton schoenleini = assay: Minimal inhibitory concentration (agar); assay type: cell-based; conditions: pH 6.4, 4 days, 27° C.
Procedure: as §4, §2, §5, §6

Trichophyton ferrugineum = assay: Minimal inhibitory concentration (agar); assay type: cell-based; conditions: potato agar, pH 6.4, 4 days, 27° C.
[7] = system: Trichophyton mentagrophytes; assay: Minimal inhibitory concentration (agar); assay type: cell-based; conditions: 96 h, pH 6.4, potato agar, pH 6.4, 4 days, 27° C.
[8] = system: Aspergillus fumigatus IAM 2162; assay: Minimal inhibitory concentration (agar); assay type: cell-based; conditions: IAM2162, 96 h, potato agar, pH 6.4, 4 days, 27° C.
Procedure: | P potato agar (pH 6.4, 4 days, 27° C.)

Trichophyton pedis 804 = assay: Minimal inhibitory concentration (agar); assay type: cell-based; conditions: Trichophyton pedis, 804, 96 h, pH 6.4
Solubility = assay type: physicochemical
[9] = system: Trichophyton interdigitale; assay: Minimal inhibitory concentration (agar); assay type: cell-based; conditions: potato agar, pH 6.4, 4 days, 27° C.
[10] = system: Acholeplasma laidlawii (A); assay: Antimycoplasma activity, inhibition zone; assay type: cell-based; conditions: Hokken PPLO agar, pH 7.8, 8 days, 37° C.
Procedure: H Hokken PPLO agar (pH 7.8, 8 days, 37° C.)
(§7) Nanaomycin A and derivatives thereof according to the present invention are assayed in a similar manner to that designated as the paper disc method by Itoh, et al [J. of Antibiotics, 24, 855-859 (1971)], for example, as follows: […]

Trichophyton roseum = assay: Minimal inhibitory concentration (agar); assay type: cell-based; conditions: Trichophyton, 96 h, pH 6.4, potato agar, pH 6.4, 4 days, 27° C.; read-out: MIC
Saccharomyces sake = assay: Minimal inhibitory concentration (agar); assay type: cell-based; conditions: potato agar, pH 6.4, 4 days, 27° C.
Microsporum gypseum 704 = assay: Minimal inhibitory concentration (agar); assay type: cell-based; conditions: Nannizzia gypsea, 704, 96 h; potato agar, pH 6.4, 4 days, 27° C.
Piricularia oryzae = assay: microbe, parasite or virus in culture; assay type: cell-based; conditions: 96 h, pH 6.4, potato agar, pH 6.4, 4 days, 27° C.
[11] = system: mycoplasma, Gram-positive bacteria and tricophyton; assay: Antimicrobial activity (in words); assay type: cell-based
Shigella sonnei E 33 = assay: Minimal inhibitory concentration (agar); assay type: cell-based; conditions: E33, 48 h, nutrient agar, pH 7.0, 2 days, 37° C.
Procedure: as §3

[12] = system: Staphylococcus aureus KB 61 (R-TC, EM); assay: Minimal inhibitory concentration (agar); assay type: cell-based; conditions: 48 h, pH 7
Procedure: as §3

[13] = system: Staphylococcus aureus FS 1227 (PC-R); assay: Minimal inhibitory concentration (agar); assay type: cell-based; conditions: 48 h, nutrient agar, pH 7.0, 2 days, 37° C., penicillin resistant strain
Procedure: as §3

[14] = system: Aerobacter aerogenes IAM 1183; assay: Minimal inhibitory concentration (agar); assay type: cell-based; conditions: Klebsiella aerogenes, IAM1183, 48 h; nutrient agar, pH 7.0, 2 days, 37° C.
Procedure: as §3

[15] = system: Proteus vulgaris IFO 3167; assay: Minimal inhibitory concentration (agar); assay type: cell-based; conditions: IFO3167, 48 h, nutrient agar, pH 7.0, 2 days, 37° C.
Procedure: as §3

[16] = system: Staphylococcus aureus KB 64 (R-TC, EM); assay: Minimal inhibitory concentration (agar); assay type: cell-based; conditions: 48 h, pH 7
Procedure: as §3

Bacillus cereus T = assay: Minimal inhibitory concentration (agar); assay type: cell-based; conditions: 48 h, nutrient agar, pH 7.0, 2 days, 37° C.
Procedure: as §3

[17] = system: Pseudomonas aeruginosa P-3; assay: Minimal inhibitory concentration (agar); assay type: cell-based; conditions: P3, 48 h, nutrient agar, pH 7.0, 2 days, 37° C.
Procedure: as §3

Proteus mirabilis = assay: Minimal inhibitory concentration (agar); assay type: cell-based; conditions: 48 h, nutrient agar, pH 7.0, 2 days, 37° C.
Procedure: as §3

[18] = system: Corynebacterium paurometabolum; assay: Minimal inhibitory concentration (agar); assay type: cell-based; conditions: Tsukamurella paurometabola, 48 h; nutrient agar, pH 7.0, 2 days, 37° C.
Procedure: as §3

[19] = system: parasite of the genus Tricophyton; assay: Therapeutic effect on infectious diseases in guinea pigs and cattle; assay type: in vivo
Procedure: When dermatomycosis of cattle caused by mass infection of Trichophyton verrucosum is treated with nanaomycin A, nanaomycin A is dissolved or suspended in a suitable carrier, for example, olive oil, and is coated on the affected part directly with or without removal of the scales. […] The results obtained by once-coating of nanaomycin A and by twice-coating (the second coating is carried out a week after the first coating) are shown in Tables 2 and 3, respectively.

Trichophyton violaceum = assay: Minimal inhibitory concentration (agar); assay type: cell-based; conditions: potato agar, pH 6.4, 4 days, 27° C.
[20] = system: Mycoplasma gallisepticum KP-13; assay: Antimycoplasma activity, inhibition zone; assay type: cell-based; conditions: Eiken PPLO agar, pH 7.8, 8 days, 37° C.
Procedure: E Eiken PPLO agar (pH 7.8, 8 days, 37° C.)
as §7

Trichophyton purpureum = assay: Minimal inhibitory concentration (agar); assay type: cell-based; conditions: 96 h, pH 6.4
Aspergillus niger = assay: Minimal inhibitory concentration (agar); assay type: cell-based; conditions: potato agar, pH 6.4, 4 days, 27° C.
Procedure: as §5, §6, §4

Aspergillus fumigatus = assay: Minimal inhibitory concentration (agar dilution method); assay type: cell-based; conditions: potato agar, pH 6.4, 27° C., 4 days
Procedure: as §5, §6

Microsporum gypseum = assay: as above; assay type: cell-based; conditions: potato agar, pH 6.4, 27° C., 4 days
Procedure: as §5, §6

`COC(=O)CC1CC2=C(C(=O)c3c(O)cccc3C2=O)C(C)O1` (stereo not shown) [Nanaomycin A methyl ester, nanaomycin A methyl ester] showed an MIC [1] of over 100 mg/L, an MIC (Trichophyton asteroides; Trichophyton, 96 h, read-out: MIC) of 12.5 mg/L (≈ 39.5 µM) and an MIC [2] of over 100 mg/L. For the same molecule, the MIC [3] was 25 mg/L (≈ 79 µM), the MIC (Sarcina lutea PCI 1001) was 25 mg/L (≈ 79 µM) and the MIC [4] was 25 mg/L (≈ 79 µM). The MIC [5] was 12.5 mg/L (≈ 39.5 µM), the MIC (Salmonella typhimurium) was over 100 mg/L and the MIC [6] was 12.5 mg/L (≈ 39.5 µM). It also gave an MIC (Candida albicans; Candida albicans, 96 h, pH 6.4, potato agar, read-out: MIC) of over 100 mg/L, an MIC (Trichophyton rubrum; Trichophyton rubrum, 96 h, pH 6.4, potato agar, read-out: MIC) of under 0.2 mg/L and an MIC (Trichophyton schoenleini; Trichophyton, 96 h, pH 6.4, potato agar, read-out: MIC) of under 0.2 mg/L. For the same molecule, the MIC (Trichophyton ferrugineum; Microsporum ferrugineum, 96 h, read-out: MIC) was 12.5 mg/L (≈ 39.5 µM), the MIC [7] was 6.3 mg/L (≈ 19.9 µM) and the MIC [8] was 100 mg/L (≈ 316 µM). The MIC (Trichophyton pedis 804) was 12.5 mg/L (≈ 39.5 µM), the Solubility in ether (Solubility; ether) was “Soluble” and the “Solubility in methanol, ethanol, ethylacetate, chloroform and acetone” value (Solubility; methanol, ethanol, ethylacetate, chloroform, acetone) was “Soluble”. The “Solubility in n-hexane and petroleum ether” value (Solubility; n-hexane, petroleum ether) was “Insoluble”, the Solubility in water (Solubility; water) was “Insoluble” and the MIC ([9]; Trichophyton interdigitale, 96 h, read-out: MIC) was 12.5 mg/L (≈ 39.5 µM). For the same molecule, the “Inhibition Zone” value [10] was “none”, the MIC (Trichophyton roseum) was 0.8 mg/L (≈ 2.53 µM) and the MIC (Saccharomyces sake; Saccharomyces, 96 h, read-out: MIC) was 50 mg/L (≈ 158 µM). The MIC (Microsporum gypseum 704) was 1.6 mg/L (≈ 5.06 µM), the MIC (Piricularia oryzae) was 12.5 mg/L (≈ 39.5 µM) and the antimicrobial activity [11] was “generally lower than those of other derivatives of nanaomycin A”. It also gave an MIC (Shigella sonnei E 33) of over 100 mg/L, an MIC [12] of 12.5 mg/L (≈ 39.5 µM) and an MIC [13] of 25 mg/L (≈ 79 µM). It also gave an MIC [14] of over 100 mg/L, an MIC [15] of over 100 mg/L and an MIC [16] of 12.5 mg/L (≈ 39.5 µM). It also gave an MIC (Bacillus cereus T) of 25 mg/L (≈ 79 µM), an MIC [17] of over 100 mg/L and an MIC (Proteus mirabilis) of over 100 mg/L. For the same molecule, the MIC [18] was 25 mg/L (≈ 79 µM), the “therapeutic effect on Trichophyton infectious diseases” value [19] was “inferior to those of nanaomycin A and acetylnanaomycin A” and the MIC (Trichophyton violaceum; Trichophyton violaceum, 96 h, read-out: MIC) was 12.5 mg/L (≈ 39.5 µM). For the same molecule, the “Inhibition Zone” value [20] was 28.5 mm and the MIC (Trichophyton purpureum) was 12.5 mg/L (≈ 39.5 µM).

ethylkalafunginate [reference compound] gave an MIC (Aspergillus niger) of over 100 mg/L, an MIC (Trichophyton asteroides) of over 100 mg/L and an MIC (Candida albicans; potato agar) of over 100 mg/L. The MIC (Trichophyton rubrum; potato agar) was over 100 mg/L, the MIC (Trichophyton schoenleini; potato agar) was over 100 mg/L and the “Minimal Inhibitory Con.” value (Aspergillus fumigatus) was over 100 µg/mL. The “Minimal Inhibitory Con.” value (Microsporum gypseum) was over 100 µg/mL, the MIC (Trichophyton ferrugineum) was over 100 mg/L and the MIC [9] was over 100 mg/L. The MIC (Saccharomyces sake) was over 100 mg/L and the MIC (Trichophyton violaceum) was over 100 mg/L.
